Columns and labels:
CENMA = assay: Postemergence herbicidal activity in forage crops (Example IV); type: in vivo, Centaurea biebersteinii DC.; details: after approximately 21 days
Protocol: Seeds or root cuttings of the desired test plant species were planted in Sun Gro MetroMix® 306 planting mixture, which typically has a pH of about 6.0 to about 6.8 and an organic matter content of about 30 percent, in plastic pots with a surface area of 126.6 square centimeters (cm^2). When required to ensure good germination and healthy plants, a fungicide treatment and/or other chemical or physical treatment was applied. The plants were grown for 14-60 days in a greenhouse with an approximate 14 hour photoperiod which was maintained at about 28° C. during the day and about 24° C. during the night. Nutrients and water were added on a regular basis and supplemental lighting was provided with overhead metal halide 1000-Watt lamps as necessary. The plants were employed for testing when they reached the BBCH13 to BBCH23 leaf stage.
Treatments consisted of the benzyl ester of 4-amino-3-chloro-5-fluoro-6-(4-chloro-2-fluoro-3-methoxy-phenyl)pyridine-2-carboxylic acid (Compound A), formulated as a SC (suspension concentrate), and a second herbicide alone and in combination.
A measured aliquot of Compound A was placed in a 25 milliliter (mL) glass vial and diluted in a volume of 1.25% (v/v) Agri-Dex® crop oil concentrate to obtain stock solutions. Compound requirements are based upon a 12 mL application volume at a rate of 187 liters per hectare (L/ha). Spray solutions of the second cereal herbicide and experimental compound mixtures were prepared by adding the stock solutions to the appropriate amount of dilution solution to form 12 mL spray solution with active ingredients in two- and three-way combinations. Formulated compounds were applied to the plant material with an overhead Mandel track sprayer equipped with an 8002E nozzle calibrated to deliver 187 L/ha over an application area of 0.503 square meters (m^2) at a spray height of 18 inches (46 cm) above average plant canopy. Control plants were sprayed in the same manner with the solvent blank.
The treated plants and control plants were placed in a greenhouse as described above and watered by sub-irrigation to prevent wash-off of the test compounds. After approximately 21 days, the condition of the test plants, as compared with that of the control plants, was determined visually and scored on a scale of 0 to 100 percent where 0 corresponds to no injury and 100 corresponds to complete kill.
Colby's equation was used to determine the herbicidal effects expected from the mixtures (Colby, S. R. 1967. Calculation of the synergistic and antagonistic response of herbicide combinations. Weeds 15:20-22.).
The following equation was used to calculate the expected activity of mixtures containing two active ingredients, A and B: Expected=A+B−(A×B/100)

IPOHE = assay: Postemergence foliar-applied, direct seeded rice weeds (Example I); type: in vivo, Ipomoea hederacea Jacq.
Excerpt: Seeds or nutlets of the desired test plant species were planted in a soil matrix prepared by mixing a loam or sandy loam soil (e.g., 28.6 percent silt, 18.8 percent clay, and 52.6 percent sand, with a pH of about 5.8 and an organic matter content of about 1.8 percent) and calcareous grit in an 80 to 20 ratio. The soil matrix was contained in plastic pots with a volume of 1 quart and a surface area of 83.6 cm^2. When required to ensure good germination and healthy plants, a fungicide treatment and/or other chemical or physical treatment was applied. The plants were grown for 8-22 days in a greenhouse with an approximate 14 h photoperiod which was maintained at about 29° C. during the day and 26° C. during the night. Nutrients (Peters Excel® 15-5-15 5-Ca 2-Mg and iron chelate) were applied in the irrigation solution as needed and water was added on a regular basis. Supplemental lighting was provided with overhead metal halide 1000-Watt lamps as necessary. The plants were employed for testing when they reached the first through fourth true leaf stage.
Treatments consisted of the acid or esters of 4-amino-3-chloro-5-fluoro-6-(4-chloro-2-fluoro-3-methoxy-phenyl)pyridine-2-carboxylic acid (Compound A), each formulated as an SC (suspension concentrate), and various herbicidal components alone and in combination. Forms of compound A were applied on an acid equivalent basis.
Other herbicidal components were applied on an acid equivalent basis and include acetolactate synthase (ALS)-inhibiting herbicides (imidazolinone chemical class) imazethapyr ammonium salt formulated as Newpath®, imazamox ammonium salt formulated as Beyond®, imazapic ammonium salt formulated as Plateau®, imazapyr isopropylamine salt formulated as Arsenal®, imazamethabenz-methyl (technical material) and imazaquin isopropylamine salt formulated as Scepter®/Imagine®.
Treatment requirements were calculated based upon the rates being tested, the concentration of active ingredient or acid equivalent in the formulation, and a 12 mL application volume at a rate of 187 L/ha.
For treatments comprised of formulated compounds, measured amounts of compounds were placed individually in 25 mL glass vials and diluted in a volume of 1.25% (v/v) Agri-Dex® crop oil concentrated to obtain 12× stock solutions. […] Application solutions were prepared by adding an appropriate amount of each stock solution (e.g., 1 mL) and diluted to the appropriate final concentrations with the addition of 10 mL of an aqueous mixture of 1.25% (v/v) crop oil concentrate so that the final spray solutions contained 1.25+/−0.05% (v/v) crop oil concentrate.
For treatments comprised of technical compounds, weighed amounts can be placed individually in 25 mL glass vials and dissolved in a volume of 97:3 v/v acetone/DMSO to obtain 12× stock solutions. […] Application solutions can be prepared by adding an appropriate amount of each stock solution (e.g., 1 mL) and diluted to the appropriate final concentrations with the addition of 10 mL of an aqueous mixture of 1.5% (v/v) crop oil concentrate so that the final spray solutions contain 1.25% (v/v) crop oil concentrate. When technical materials are used, the concentrated stock solutions can be added to the spray solutions so that the final acetone and DMSO concentrations of the application solutions are 16.2% and 0.5%, respectively.
For treatments comprised of formulated and technical compounds, weighed amounts of the technical materials were placed individually in 25 mL glass vials and dissolved in a volume of 97:3 v/v acetone/DMSO to obtain 12× stock solutions, and measured amounts of the formulated compounds were placed individually in 25 mL glass vials and diluted in a volume of 1.5% (v/v) crop oil concentrate or water to obtain 12× stock solutions. […]

[1] = Compound A Benzyl Ester 17.5 gae/ha

Cc1cnc(C2=NC(C)(C(C)C)C(=O)N2)c(C(=O)O)c1.N (racemic) [Imazapic ammonium, ammonium (±)-2-[4,5-dihydro-4-methyl-4-(1-methylethyl)-5-oxo-1H-imidazol-2-yl]-5-methyl-3-pyridinecarboxylic acid]
CENMA Obs (CENMA; Imazapic ammonium 8.75 gae/ha): 0% | CENMA Obs (CENMA; Imazapic ammonium 17.5 gae/ha): 0%

COc1c(Cl)ccc(-c2nc(C(=O)O)c(Cl)c(N)c2F)c1F [Compound A Acid, 4-amino-3-chloro-6-(4-chloro-2-fluoro-3-methoxyphenyl)-5-fluoropyridine-2-carboxylic acid]
Visual Weed Control (%) - 21 DAA IPOHE Obs (IPOHE; Compound A Acid 4.38 gae/ha): 0% | Visual Weed Control (%) - 21 DAA IPOHE Obs (IPOHE; Compound A Acid 8.75 gae/ha): 10% | Visual Weed Control (%) - 21 DAA IPOHE Obs (IPOHE; Compound A Acid 17.5 gae/ha): 30%

COc1c(Cl)ccc(-c2nc(C(=O)OCc3ccccc3)c(Cl)c(N)c2F)c1F [Compound A Benzyl Ester, benzyl ester of 4-amino-3-chloro-5-fluoro-6-(4-chloro-2-fluoro-3-methoxy-phenyl)pyridine-2-carboxylic acid]
Visual Weed Control (%) - 21 DAA IPOHE Obs (IPOHE; Compound A Benzyl Ester 4.38 gae/ha): 0% | Visual Weed Control (%) - 21 DAA IPOHE Obs (IPOHE; Compound A Benzyl Ester 8.75 gae/ha): 10% | Visual Weed Control (%) - 21 DAA IPOHE Obs (IPOHE; [1]): 25% | CENMA Obs (CENMA; Compound A Benzyl Ester 4.4 gae/ha): 70% | CENMA Obs (CENMA; Compound A Benzyl Ester 8.8 gae/ha): 85% | CENMA Obs (CENMA; [1]): 95%
